Tests used:
[1] = test system: Sweetpotato Whitefly Crawler (Bemisia tabaci) (BEMITA); experiment: Bioassay on Sweetpotato Whitefly Crawler, foliar spray on cotton plants; assay type: in vivo; conditions: 200 ppm spray on cotton leaf, graded after 8-9 days, live nymphs, Abbott's correction
Experimental: Cotton plants grown in 3-inch pots, with 1 small (3-5 cm) true leaf, were used at test substrate. The plants were placed in a room with whitely adults. Adults were allowed to deposit eggs for 2-3 days. After a 2-3 day egg-laying period, plants were taken from the adult whitefly room. Adults were blown off leaves using a hand-held Devilbliss sprayer (23 psi). Plants with egg infestation (100-300 eggs per plant) were placed in a holding room for 5-6 days at 82° F. and 50% RH for egg hatch and crawler stage to develop. Four cotton plants were used for each treatment. Compounds (2 mg) were dissolved in 1 mL of acetone solvent, forming stock solutions of 2000 ppm. The stock solutions were diluted 10× with 0.025% Tween 20 in water to obtain a test solution at 200 ppm. A hand-held Devilbliss sprayer was used for spraying a solution to both sides of cotton leaf until runoff. Reference plants (solvent check) were sprayed with the diluent only. Treated plants were held in a holding room for 8-9 days at approximately 82° F. and 50% RH prior to grading. Evaluation was conducted by counting the number of live nymphs per plant under a microscope.

[2] = test system: Green Peach Aphid (Myzus persicae) (MYZUPE); experiment: Bioassay on Green Peach Aphid (GPA), foliar spray on cabbage seedlings; assay type: in vivo; conditions: 200 ppm spray on cabbage leaves, graded after three days, live aphids, Abbott's correction
Experimental: Several molecules disclosed herein were tested against GPA using procedures described below.
Cabbage seedling grown in 3-in pots, with 2-3 small (3-5 cm) true leaves, were used as test substrate. The seedlings were infested with […] (wingless adult and nymph stages) one day prior to chemical application. Four pots with individual seedlings were used for each treatment. Test compounds (2 mg) were dissolved in 2 mL of acetone/MeOH (1:1) solvent, forming stock solutions of 1000 ppm test compound. The stock solutions were diluted 5× with 0.025% Tween 20 in water to obtain the solution at 200 ppm test compound. A hand-held aspirator-type sprayer was used for spraying a solution to both sides of the cabbage leaves until runoff. Reference plants (solvent check) were sprayed with the diluent only containing 20% by volume acetone/MeOH (1:1) solvent. Treated plants were held in a holding room for three days at approximately 25° C. and ambient relative humidity (RH) prior to grading. Evaluation was conducted by counting the number of live aphids per plant under a microscope. Percent Control was measured by using Abbott's correction formula (W. S. Abbott, “A Method of Computing the Effectiveness of an Insecticide” J. Econ. Entomol 18 (1925), pp. 265-267) as follows. Corrected % Control=100*(X−Y)/X • where • X=No. of live aphids on solvent check plants and • Y=No. of live aphids on treated plants
The results are indicated in the table entitled “Table 1: GPA (MYZUPE) and sweetpotato whitefly-crawler (BEMITA) Rating Table”.

Compound | BEMITA rating (% Control of Mortality) [1] | MYZUPE rating (% Control of Mortality) [2]
Cl.Nc1c[nH]nc1Cl [Compound 1a, 3-chloro-1H-pyrazol-4-amine Hydrochloride] | B (More than 0-Less than 80) | B (More than 0-Less than 80)
O=C(CCSCCC(F)(F)F)Nc1c[nH]nc1Cl [Compound 2.3, N-(3-chloro-1H-pyraxol-4-yl)-3-((3,3,3,trifluoropropyl)thio)propanamide] | B (More than 0-Less than 80) | B (More than 0-Less than 80)
O=C(CCSCCC(F)(F)F)Nc1cn(-c2cccnc2)nc1Cl [Compound 5.3, N-(3-chloro-1-(pyridin-3-yl)-1H-pyrazol-4-yl)-3-((3,3,3-trifluoropropyl)thio)propanamide] | B (More than 0-Less than 80) | A (80-100)
CCN(C(=O)CCSCCC(F)(F)F)c1cn(-c2cccnc2)nc1Cl [Compound 6.3, N-(3-chloro-1-(pyridin-3-yl)-1H-pyrazol-4-yl)-N-ethyl-3-((3,3,3-trifluoropropyl)thio)propanamide] | A (80-100) | A (80-100)
CCN(C(=O)CC[S+]([O-])CCC(F)(F)F)c1cn(-c2cccnc2)nc1Cl (stereo not shown) [Compound 7.3, N-(3-chloro-1-(pyridin-3-yl)-1H-pyrazol-4-yl)-N-ethyl-3-((3,3,3-trifluoropropyl)sulfoxo)propanamide] | A (80-100) | A (80-100)

Reference: US9447048B2, “Processes for the preparation of pesticidal compounds” (Dow AgroSciences LLC, priority 2013, dated 2016)
